Assays:
[1] = tested on: corneal endothelium; experiment: Partial rabbit corneal endothelial disorder model, eye drops; type: in vivo
Experimental: A stainless steel chip with a diameter of 7 mm was immersed in liquid nitrogen and cooled. The chip was contacted with the center portion of a corneal of a Japanese white rabbit (obtained from Oriental Bioservice) for 15 seconds under general anesthesia, such that corneal endothelial cells at the center portion partially fell off. Eye drops of SB203580 adjusted to 10 mM was then administered 4 times a day for 2 days at 50 μl per dose. As a control, eye drops of a base agent were administered in an eye in which a partial corneal endothelial disorder was similarly created, and a picture was taken. Further, the rabbit was euthanized and the corneal was extracted. The wounded area of the corneal endothelium was stained with alizarin red S (Nacalai Tesque, CI-58005) and observed. Furthermore, immunostaining was applied to corneal tissue with the cell proliferation marker Ki67. The same methodology as the aforementioned Examples or the like was used for immunostaining.

[2] = tested on: corneal endothelial cells; experiment: Western blotting of cyclin dependent kinase inhibiting factors and G1/S transition molecules in cultured corneal endothelial cells; type: cell-based, human
[3] = tested on: corneal endothelium; experiment: Monkey corneal endothelial partial disorder model, eye drops, Ki-67 immunostaining; type: in vivo, cynomolgus monkey; settings: 3 mM eye drops, 50 μl, 4 times a day, right eye; vs base agent in left eye; 5 views per eye; p<0.01
Experimental: After a stainless steel bar with a diameter of 7 mm was cooled with liquid nitrogen, the bar was contacted with the corneal in both eyes of 2 cynomolgus monkeys (purchased from Shiga University of Medical Science). About 7 mm in diameter of the corneal endothelium fell off to make a partial disorder model.
50 μl of SB203580 (3 mM) eyedrops was then administered into the right eye 4 times a day. Similarly, eye drops of abase agent, which is phosphate buffer solution, were administered into the left eye as the control.
Expression of Ki-67 associated with cell proliferation was confirmed to be elevated after administration of SB203580 eye drops by immunostaining. The methodology of immunostaining was in accordance with the above-described Preparation Example 2. The antibodies were changed to antibodies to Ki-67 to conduct the experiment.
For a tissue staining inspection, cultured cells were immobilized with 4% formaldehyde for 10 minutes at room temperature (RT) and incubated for 60 minutes with 1% bovine serum albumin (BSA). The antibodies to Ki-67 were diluted 1:200 to conduct the inspection. For secondary antibodies, a 1:1000 dilution of Alexa Fluor® 488 labeling goat antimouse IgG (Life Technologies) was used. […] Slides were then observed under a fluorescence microscope (all-in-one fluorescence microscope, KEYENCE, Osaka, JAPAN). […]

[4] = Western blotting after 20 days, 10 μM and 30 μM vs control
[5] = Western blotting, 10 μM, after 12 hours and 24 hours

SMILES: C[S+]([O-])c1ccc(-c2nc(-c3ccncc3)c(-c3ccc(F)cc3)[nH]2)cc1 (stereo not shown) [SB203580, 4-(4-fluorophenyl)-2-(4-methylsulfinylphenyl)-5-(4-pyridyl)-1H-imidazole]
- wound area of corneal endothelium (alizarin staining) ([1]; 10 mM eye drops 4 times a day for 2 days, 50 μl per dose, 6 eyes each, vs control, p<0.01): contracted significantly more
- transparency of cornea (anterior eye section picture) ([1]; 10 mM eye drops 4 times a day for 2 days, 50 μl per dose, day 2): recovered quickly
- Expression of Ki67 in corneal tissue (ratio of Ki67 positive cells) ([1]; 10 mM eye drops, vs control): significantly more cells
- expression of p16 [2, 4]: suppressed
- expression of p21 [2, 4]: suppressed
- expression of p27 [2, 4]: suppressed
- Rb protein phosphorylation (p-pRb) [2, 5]: promoted
- cyclin D1 expression [2, 5]: promoted
- cyclin D3 expression [2, 5]: promoted
- percentage of Ki67 positive cells in corneal endothelium [3]: significantly more Ki67 positive cells

— patent US10813920B2, “Drug for treating corneal endothelium by promoting cell proliferation or inhibiting cell damage” (THE DOSHISHA, priority 2013, dated 2020)
